{
  "source": "patent US20180289692A1",
  "about": "“TLR MODULATORS AND METHODS OF USE” (CELGENE CORPORATION, priority 2015, published 2018)",
  "key": {"NOD2": {"target": "T1, NOD2 (Homo sapiens, UniProt Q9HC29)", "T1 construct": "host or cells: HEK-Blue NOD2 cells", "T1 sequence (Q9HC29 whole entry, species assumed)": "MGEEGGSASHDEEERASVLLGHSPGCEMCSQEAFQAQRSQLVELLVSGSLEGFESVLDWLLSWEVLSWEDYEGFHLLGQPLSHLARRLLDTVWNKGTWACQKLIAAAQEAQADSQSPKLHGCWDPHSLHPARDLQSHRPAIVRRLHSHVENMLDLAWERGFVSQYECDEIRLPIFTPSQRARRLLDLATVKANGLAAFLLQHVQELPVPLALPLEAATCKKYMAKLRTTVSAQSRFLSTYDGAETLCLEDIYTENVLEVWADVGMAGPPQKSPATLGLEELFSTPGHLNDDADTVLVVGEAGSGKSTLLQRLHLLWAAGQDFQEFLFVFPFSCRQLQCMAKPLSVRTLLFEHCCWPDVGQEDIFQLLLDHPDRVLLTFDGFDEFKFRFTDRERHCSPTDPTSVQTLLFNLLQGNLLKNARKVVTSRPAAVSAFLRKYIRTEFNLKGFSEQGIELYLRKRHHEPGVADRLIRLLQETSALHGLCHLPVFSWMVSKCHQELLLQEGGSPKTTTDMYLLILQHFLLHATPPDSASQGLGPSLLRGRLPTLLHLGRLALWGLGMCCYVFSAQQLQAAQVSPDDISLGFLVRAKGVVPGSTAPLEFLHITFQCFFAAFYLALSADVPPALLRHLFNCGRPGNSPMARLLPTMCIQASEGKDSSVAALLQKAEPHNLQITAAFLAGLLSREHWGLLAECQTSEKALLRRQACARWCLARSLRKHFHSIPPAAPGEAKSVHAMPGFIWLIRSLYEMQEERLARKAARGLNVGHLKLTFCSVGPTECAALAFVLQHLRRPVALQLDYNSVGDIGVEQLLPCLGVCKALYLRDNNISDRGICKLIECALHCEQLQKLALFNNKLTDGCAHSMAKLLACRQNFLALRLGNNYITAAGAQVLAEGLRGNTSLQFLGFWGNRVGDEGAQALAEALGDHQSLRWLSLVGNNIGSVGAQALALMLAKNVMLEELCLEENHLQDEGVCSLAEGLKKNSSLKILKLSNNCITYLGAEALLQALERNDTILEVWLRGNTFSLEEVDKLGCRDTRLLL", "conditions": "HEK-Blue NOD2 cells; cited from earlier work"}, "human PBMCs": {"tested_on": "human PBMCs", "assay": "IL-1β secretion from NOD2 ligand L18-MDP stimulated human PBMCs", "assay_type": "cell-based", "conditions": "L-18 MDP 100 ng/ml, FIG. 19", "method": "PBMCs were isolated from 3 donors of buffy coat (Blood Center of NY) using density gradient centrifugation. The PBMCs were resuspended in RPMI-1640 media supplemented with 10% FBS, 2 mM L-glutamine and 100 units/ml Penicillin and 100 μg/ml Streptomycin. The cells were plated in 96-well flat bottom plates at 250,000 cells/well. […] After 1 hr, the cells were stimulated with and without L-18 MDP at 100 ng/ml (Invivogen, San Diego, Calif.) or 1 ng/ml LPS (Sigma, St. Louis, Mo.). The cells were then incubated for 24 hrs at 37° C., 5% CO2. All compounds or ODNs were resuspended in endotoxin-free water. After 24 hrs, the supernatant was collected and analyzed for cytokine production. The supernatants were analyzed in duplicate for cytokine production in a magnetic multi-plex bead format using the MagPix instrument (Millipore, Billerica, Mass.). IL-1β was tested using a bead-based human cytokine/chemokine kit (Millipore, Cat# HCYTOMAG-60K-09). The manufacturer's procedures were followed accordingly. Data analysis was performed using Milliplex Analyst Software (Millipore)."}, "[1]": {"tested_on": "CD19+ B-cells in human PBMCs", "assay": "B-cell activation in human PBMCs, CD86 expression on CD19+ B-cells by FACS", "assay_type": "cell-based", "conditions": "24 h, FIG. 7", "method": "PBMC were incubated on ice in the presence of Fc-Block (BD Pharmingen) for 20 minutes, washed, and incubated with antibodies specific for surface molecules or isotype-matched control mAbs. APC-Cy7 labeled anti-human CD19 mAb and PE-labeled anti-human CD86 mAb were purchased from BioLegend. The stained cells were then subjected to FACS (FACSCanto, BD Biosciences) using the FACSDiva software. FACS analysis was performed using FlowJo software. Single, viable cells in the CD19+ B-cells gates were used for analysis. The flow cytometric results are expressed as the percentage of CD86-expressing cells (FIG. 7A) as the mean fluorescence intensity (MFI) of CD86-expressing cells in each gate (FIG. 7B)."}},
  "note": "Oligonucleotides are written 5' to 3', each unit as a sugar letter and its base; * is a phosphorothioate linkage, no mark a phosphodiester; rarer units and linkages stand in square brackets, end groups in braces. Plain capitals give the bases only. d = 2'-deoxy (DNA)",
  "data": [
    {"compound": "CCCCCCCCCCCCCCCCCC(=O)OCC1OC(O)C(NC(C)=O)C(OC(C)C(=O)NC(C)C(=O)NC(CCC(=O)O)C(N)=O)C1O", "note": "[L-18 MDP]", "values": [
      {"measurement": "more efficient NF-κB activator than MDP", "setting": "NOD2", "result": 10, "unit": "fold"},
      {"measurement": "stimulation of IL-1β secretion from human PBMCs", "setting": "human PBMCs", "result": "about 51 fold"}
    ]},
    {"compound": "ODN2137: 5′-TGCTGCTTTTGTGCTTTTGTGCTT-3′, fully PS, GC-containing (DNA dT*dG*dC*dT*dG*dC*dT*dT*dT*dT*dG*dT*dG*dC*dT*dT*dT*dT*dG*dT*dG*dC*dT*dT)", "values": [
      {"measurement": "B-cell activation (CD86 upregulation)", "setting": "[1]", "result": "Stronger"}
    ]}
  ]
}
